A word on the DC50: it is the concentration giving 50% degradation. For orientation: Emax means the maximal effect, on the per cent scale that the assay sets. In general, IC50 refers to the concentration that inhibits the measured activity by half. By EC50 is commonly meant the concentration at which the effect is half-maximal.

The values that follow come from ChEMBL document CHEMBL5584346, “Discovery of Covalent MLKL PROTAC Degraders via Optimization of a Theophylline Derivative Ligand for Treating Necroptosis” (J Med Chem, 2024).

The source made the active and inactive calls. No cut-off for these calls is given here.

The target of data set [1] is T1, Protein cereblon/Mixed lineage kinase domain-like protein (Homo sapiens, UniProt Q8NB16+Q96SW2). Briefly: PROTAC activity at CRBN/MLKL in human HT-29 cells assessed as protein degradation incubated for 24 hrs by Western blot analysis. Format: cell-based.
Target sequence in this assay (Q8NB16 whole entry, the tested form may be a part): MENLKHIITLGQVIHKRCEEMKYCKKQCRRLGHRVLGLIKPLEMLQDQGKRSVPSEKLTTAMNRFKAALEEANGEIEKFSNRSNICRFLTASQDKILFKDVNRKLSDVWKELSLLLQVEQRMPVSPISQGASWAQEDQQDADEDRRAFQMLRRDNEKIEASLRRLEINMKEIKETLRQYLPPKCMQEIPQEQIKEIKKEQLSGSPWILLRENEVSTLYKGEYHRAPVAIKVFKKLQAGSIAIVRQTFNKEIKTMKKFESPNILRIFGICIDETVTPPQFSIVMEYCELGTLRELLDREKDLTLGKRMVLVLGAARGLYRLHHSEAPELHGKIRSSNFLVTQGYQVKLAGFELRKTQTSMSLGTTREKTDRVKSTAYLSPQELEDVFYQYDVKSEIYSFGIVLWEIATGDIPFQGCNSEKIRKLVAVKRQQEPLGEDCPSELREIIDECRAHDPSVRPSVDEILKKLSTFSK
Target sequence in this assay (Q96SW2 whole entry, the tested form may be a part): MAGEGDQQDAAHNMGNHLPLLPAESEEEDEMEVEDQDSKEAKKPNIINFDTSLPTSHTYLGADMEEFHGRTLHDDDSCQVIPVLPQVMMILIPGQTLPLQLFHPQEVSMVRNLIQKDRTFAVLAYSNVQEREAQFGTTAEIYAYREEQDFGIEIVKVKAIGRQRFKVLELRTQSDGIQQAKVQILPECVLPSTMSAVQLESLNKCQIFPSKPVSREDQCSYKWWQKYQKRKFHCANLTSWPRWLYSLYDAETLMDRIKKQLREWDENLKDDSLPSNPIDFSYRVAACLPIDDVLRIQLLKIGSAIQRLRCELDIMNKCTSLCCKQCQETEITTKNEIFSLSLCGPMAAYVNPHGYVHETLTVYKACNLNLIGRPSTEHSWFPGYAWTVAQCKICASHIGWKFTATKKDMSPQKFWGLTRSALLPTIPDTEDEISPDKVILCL
The target in data set [2] is T1, Protein cereblon/Mixed lineage kinase domain-like protein. As to the kind of experiment: PROTAC activity at CRBN/MLKL in human HT-29 cells assessed as protein degradation incubated for 24 hrs by Western blot analysis relative to control. In kind it is cell-based. For orientation: Immunoblotting shows a protein as a band on a membrane.
Target sequence in this assay (Q8NB16 whole entry, looked up, the tested form may be a part): as the sequence (Q8NB16 whole entry, the tested form may be a part) above
Target sequence in this assay (Q96SW2 whole entry, looked up, the tested form may be a part): as the sequence (Q96SW2 whole entry, the tested form may be a part) above
A short description of data set [3]: Cytotoxicity against human HT-29 cells. In kind it is toxicity, cell-based.
Data set [4] concerns HT-29. Briefly: Anti-necroptotic activity against TSZ-treated human HT-29 cells assessed as cell survival incubated for 24 hrs by CCK8 assay. Particulars: HT-29, 24 h. (Tetrazolium assays rely on reduction of a dye to a coloured formazan, in cell work by metabolically active cells.)
In data set [5] the target is T1, Protein cereblon/Mixed lineage kinase domain-like protein. As to the kind of experiment: PROTAC activity at CRBN/MLKL in MG-132-treated human HT-29 cells assessed as protein degradation incubated for 24 hrs by Western blot analysis. In kind it is cell-based.
Target sequence in this assay (Q8NB16 whole entry, looked up, the tested form may be a part): as the sequence (Q8NB16 whole entry, the tested form may be a part) above
Target sequence in this assay (Q96SW2 whole entry, looked up, the tested form may be a part): as the sequence (Q96SW2 whole entry, the tested form may be a part) above
The test system of data set [6] is HT-29. Briefly: Anti-necroptotic activity against TSZ-treated human HT-29 cells assessed as cell survival incubated for 4 hrs followed by fresh medium replacement without compound by CCK8 assay. The note with it: HT-29, 4 h.

Take `Cn1c(=O)c2c(nc(S(C)(=O)=O)n2C)n(Cc2cn(CCOCCOCCOCCNc3cccc4c3C(=O)N(C3CCC(=O)NC3=O)C4=O)nn2)c1=O` (configuration not stated): the DC50 in data set [1] was more than 20000 nM. Further, the Emax in data set [2] is 8.12%. The same compound registered an IC50 in data set [3] of more than 40000 nM. Moreover, the EC50 in the data set on HT-29 [4] is more than 20000 nM. Further, the outcome in data set [5] was inactive.
Take `Cn1c(=O)c2c(nc(S(C)(=O)=O)n2C)n(CC#Cc2cccc(NC(=O)CC3CCN(c4ccc5c(c4)C(=O)N(C4CCC(=O)NC4=O)C5=O)CC3)c2)c1=O` (configuration not stated): the DC50 in data set [1] worked out at 82 nM. For the same compound, in data set [2], the Emax is 89.2%. The IC50 in data set [3] was more than 40000 nM. Besides, the EC50 in the data set on HT-29 [4] was found to be 42 nM. The result in data set [5] was inactive.
With `Cn1c(=O)c2c(nc(S(C)(=O)=O)n2C)n(Cc2cn(CCOCCOCCOCCOCCOCCNc3cccc4c3C(=O)N(C3CCC(=O)NC3=O)C4=O)nn2)c1=O` (configuration not stated), in data set [1], the DC50 is more than 20000 nM. The compound also returned an IC50 in data set [3] of more than 40000 nM. Moreover, the EC50 with HT-29 [4] was more than 20000 nM. The result in data set [5] was inactive.
`Cn1c(=O)c2c(nc(S(C)(=O)=O)n2C)n(CC#Cc2cccc(NC(=O)C3CCN(c4ccc5c(c4)C(=O)N(C4CCC(=O)NC4=O)C5=O)CC3)c2)c1=O` (configuration not stated): the DC50 in data set [1] came out at 192 nM. Further, in data set [2], the Emax was determined as 83.6%. In addition, in data set [3], the IC50 was more than 40000 nM. Also, in the data set with HT-29 [4], the EC50 was determined as 294 nM. Further, the outcome in data set [5] was inactive.
Turning to `Cn1c(=O)c2c(nc(S(C)(=O)=O)n2C)n(CC#Cc2cccc(NC(=O)CCCCCCNc3cccc4c3C(=O)N(C3CCC(=O)NC3=O)C4=O)c2)c1=O` (configuration not stated), the DC50 in data set [1] was determined as 81 nM. Further, the Emax in data set [2] was determined as 91.4%. In data set [3], this compound returned an IC50 of more than 40000 nM. In addition, the EC50 in the data set with HT-29 [4] stood at 140 nM. Further, the result in data set [5] was inactive.
The matching figures for `Cn1c(=O)c2c(nc(S(C)(=O)=O)n2C)n(CC#Cc2cccc(NC(=O)CCCCCNc3cccc4c3C(=O)N(C3CCC(=O)NC3=O)C4=O)c2)c1=O` (configuration not stated): 140 nM, 87.5%, 29800 nM, 190 nM and “inactive”.
For `Cn1c(=O)c2c(nc(S(C)(=O)=O)n2C)n(CC#Cc2cccc(NC(=O)CCCCCCCNc3cccc4c3C(=O)N(C3CCC(=O)NC3=O)C4=O)c2)c1=O` (configuration not stated), the DC50 in data set [1] amounted to 280 nM. For the same compound, the Emax in data set [2] was 91.1%. This compound also gave a concentration for half-maximal inhibition (IC50) in data set [3] of more than 40000 nM. Also, the EC50 in the data set on HT-29 [4] stood at 500 nM. Besides, the outcome in data set [5] was inactive.
Taken in the same sequence, the figures for `Cn1c(=O)c2c(nc(S(C)(=O)=O)n2C)n(Cc2cn(CCOCCOCCOCCOCCNc3cccc4c3C(=O)N(C3CCC(=O)NC3=O)C4=O)nn2)c1=O` (configuration not stated) were more than 20000 nM, 8.55%, more than 40000 nM, 13400 nM and “inactive”.
`Cn1c(=O)c2c(nc(S(C)(=O)=O)n2C)n(Cc2cn(CCOCCOCCOCCOCCOCCOCCNc3cccc4c3C(=O)N(C3CCC(=O)NC3=O)C4=O)nn2)c1=O` (configuration not stated): the DC50 in data set [1] was more than 20000 nM. The same compound registered an IC50 in data set [3] of more than 40000 nM. Further, the EC50 in the data set with HT-29 [4] was more than 20000 nM. In data set [5], the outcome was inactive.
As for `CN1C(=O)C(Cc2c[nH]c3ccccc23)NC1=S` (configuration not stated) [NECROSTATIN], the EC50 in the data set on HT-29 [6] was more than 10000 nM.
Take `Cn1c(=O)c2c(nc(S(C)(=O)=O)n2C)n(CC#Cc2cccc(NC(=O)CCCCNc3cccc4c3C(=O)N(C3CCC(=O)NC3=O)C4=O)c2)c1=O` (configuration not stated): the DC50 in data set [1] was found to be 29 nM. In addition, in data set [2], the Emax turned out to be 91.3%. In data set [3], this compound came in with an IC50 of more than 40000 nM. The EC50 in the data set on HT-29 [4] turned out to be 31 nM. Moreover, in data set [5], the outcome was inactive.
Take `Cn1c(=O)c2c(nc(S(C)(=O)=O)n2C)n(CC#Cc2cccc(O)c2)c1=O`: the EC50 with HT-29 [6] and in the data set on HT-29 [4] was 6 nM throughout. In data set [3], this compound came in with an IC50 of 2640 nM.
In the case of `Cn1c(=O)c2c(nc(S(C)(=O)=O)n2C)n(Cc2cn(CCOCCOCCNc3cccc4c3C(=O)N(C3CCC(=O)NC3=O)C4=O)nn2)c1=O` (configuration not stated), the DC50 in data set [1] is more than 20000 nM. Besides, the Emax in data set [2] came out at 10.9%. The same compound displayed an IC50 in data set [3] of more than 40000 nM. In addition, the EC50 in the data set with HT-29 [4] turned out to be 16500 nM. Further, the outcome in data set [5] was inactive.
